Reference: patent US6869940B2, “Malignant tumor metastasis inhibitors” (Chugai Seiyaku Kabushiki Kaisha, priority 1995, dated 2005)

Test system: Hara cells derived from human lung cancer
Test: Bone metastasis model: Hara cells transplanted into the heart of nude mice, preventive effect of OCT
Assay type: in vivo
Source text: Preventive effects of OCT on bone metastases were studied using a bone metastasis model prepared with Hara cells derived from human lung cancer.
A test of preventive effects of OCT on bone metastases of Hara cells was started on the 20th day after 5×10^5 Hara cells were transplanted into the heart of nude mice, at which time the body weight of the animals began to slightly decrease but neither rise in Ca nor clear bone metastasis image on soft X-rays was observed. On that day, the animals were grouped by body weight, and a vehicle (n=9) or 1 μg/kg of OCT (n=9) was orally administered to each animal 4 to 5 times per week for six weeks (29 times in total). At different instants during the administration period, the body weight and Ca level in blood were measured and soft X-ray photographs were taken.

[1] = after 15 doses on the 22nd day after starting the test, 1 μg/kg OCT orally, n=9
[2] = after 20 doses on the 29th day after starting the test, 1 μg/kg OCT orally, n=9
[3] = first day of the test, 1 μg/kg OCT orally, n=9

For `C=C1/C(=C\C=C2/CCC[C@@]3(C)C2CC[C@@H]3[C@H](C)OCCC(C)(C)O)C[C@@H](O)C[C@@H]1O` (stereo partly drawn) [OCT, 22-oxa-1α, 25-dihydroxyvitamin D3], the “effect on rise in Ca level in blood” value (1 μg/kg OCT orally vs vehicle group) was “tendency to suppress the rise in Ca level in blood”, the death (1 μg/kg OCT orally, n=9, in the vehicle group four animals died by the 42nd day) was “no death was observed” and the “effect on body weight decrease” value (29th day, 1 μg/kg OCT orally vs vehicle group, p<0.05) was “significantly suppressed body weight decrease”. The “Ca level in blood” value [1] was 1.37 ± 0.04 mM, the body weight [1] was 24.51 ± 1.27 g and the “Ca level in blood” value [2] was 1.34 ± 0.16 mM. For the same compound, the body weight [2] was 25.00 ± 1.20 g, the “bone metastasis image on soft X-ray photographs” value (during the administration period (six weeks), 1 μg/kg OCT orally, n=9, vehicle group: four animals in total) was “no bone metastasis image was observed” and the “Ca level in blood” value [3] was 1.32 ± 0.04 mM. It also gave a body weight [3] of 23.61 ± 1.57 g.
